Measured values as given in patent publication US20240158446A1, “CYCLIC COMPOUND HAVING SELECTIVE INHIBITORY ACTION ON KRAS OVER HRAS AND NRAS” (CHUGAI SEIYAKU KABUSHIKI KAISHA, priority 2021, published 2024).
Where a SMILES comes first, the peptide text is derived from it. Bridges are numbered along the chain shown (N, C = ends). [ ]: non-standard residue; d: D form. The star is where a group is joined. hPhe(3-Cl-4-CF3) = N[C@@H](CCc1ccc(C(F)(F)F)c(Cl)c1)C(=O)O; NPrPhe(4-CF3) = CCCN[C@@H](Cc1ccc(C(F)(F)F)cc1)C(=O)O; NMeAbu(4,4,4-F3) = CN[C@@H](CC(F)(F)F)C(=O)O; NMeGly(cPent) = CN[C@H](C(=O)O)C1CCCC1; Pro(4,4-F2) = O=C(O)[C@@H]1CC(F)(F)CN1; NMeGly(cBu) = CN[C@H](C(=O)O)C1CCC1; NMeD = CN[C@@H](CC(=O)O)C(=O)O; NMeL = CN[C@@H](CC(C)C)C(=O)O; NMeNva = CCC[C@H](NC)C(=O)O; NMeAbu = CC[C@H](NC)C(=O)O; Morpholide = C1CN(*)CCO1; NMeA = CN[C@@H](C)C(=O)O; Ac5c = NC1(C(=O)O)CCCC1; Aze = O=C(O)[C@@H]1CCN1; Ac4c = NC1(C(=O)O)CCC1; Sar = CNCC(=O)O

How the values were obtained:
[1] = target: GDP-bound NRAS wild-type protein (Homo sapiens, UniProt P01111); experiment: Binding to NRAS by surface plasmon resonance (SPR), Single Cycle Kinetics; details: SPR, GDP-bound NRAS wild-type protein vs GDP-bound KRAS wild-type protein
GDP-bound NRAS wild-type protein, sequence (P01111 whole entry): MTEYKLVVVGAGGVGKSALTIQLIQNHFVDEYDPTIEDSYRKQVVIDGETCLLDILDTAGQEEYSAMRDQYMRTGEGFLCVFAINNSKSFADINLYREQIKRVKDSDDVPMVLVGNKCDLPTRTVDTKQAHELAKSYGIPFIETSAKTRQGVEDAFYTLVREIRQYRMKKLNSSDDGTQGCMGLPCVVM

[2] = target: GDP-bound KRAS wild-type protein (Homo sapiens, UniProt P01116); experiment: Binding to KRAS by surface plasmon resonance (SPR), Single Cycle Kinetics; details: SPR Single Cycle Kinetics, GDP-bound KRAS wild-type protein, 1:1 binding model; read-out: KRAS KD
GDP-bound KRAS wild-type protein, sequence (P01116 whole entry): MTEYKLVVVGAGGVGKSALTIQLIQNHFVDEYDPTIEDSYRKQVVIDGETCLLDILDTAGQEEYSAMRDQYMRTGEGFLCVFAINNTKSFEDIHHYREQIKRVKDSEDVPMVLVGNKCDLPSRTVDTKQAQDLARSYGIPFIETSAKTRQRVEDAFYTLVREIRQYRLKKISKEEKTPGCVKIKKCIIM

[3] = target: GDP-bound HRAS wild-type protein (Homo sapiens, UniProt P01112); experiment: Binding to HRAS by surface plasmon resonance (SPR), Single Cycle Kinetics; details: SPR, GDP-bound HRAS wild-type protein vs GDP-bound KRAS wild-type protein
GDP-bound HRAS wild-type protein, sequence (P01112 whole entry): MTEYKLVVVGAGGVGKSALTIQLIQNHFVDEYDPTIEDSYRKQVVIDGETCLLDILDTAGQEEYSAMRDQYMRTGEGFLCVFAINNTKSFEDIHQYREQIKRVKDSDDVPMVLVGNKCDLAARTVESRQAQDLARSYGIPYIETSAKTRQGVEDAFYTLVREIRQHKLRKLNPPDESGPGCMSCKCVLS

Compound | NRAS/KRAS (ratio of KD value for NRAS to KD value for KRAS) [1] | Kd [2] [nM] | HRAS/KRAS (ratio of KD value for HRAS to KD value for KRAS) [3]
CCCN1C(=O)[C@@H]2CCN2C(=O)[C@H](C)N(C)C(=O)[C@H]([C@@H](C)CC)NC(=O)[C@H](CC(C)C)N(C)C(=O)C[C@@H](C(=O)N2CCOCC2)N(C)C(=O)[C@H](C2CCCC2)N(C)C(=O)C2(CCCC2)NC(=O)[C@@H]2CC(F)(F)CN2C(=O)[C@H](CCc2ccc(C(F)(F)F)c(Cl)c2)NC(=O)CN(C)C(=O)[C@@H]1Cc1ccc(C(F)(F)F)cc1 [PP0196] ([NMeL]I[NMeA][Aze][NPrPhe(4-CF3)][Sar][hPhe(3-Cl-4-CF3)][Pro(4,4-F2)][Ac5c][NMeGly(cPent)][NMeD]-Morpholide; lactam N-11) | C (A compound having a KD ratio of 0.1 or more and less than 3 is denoted as C) | 0.15 | C (A compound having a KD ratio of 0.1 or more and less than 3 is denoted as C)
CCCN1C(=O)CN(C)C(=O)CN(C)C(=O)[C@H]([C@@H](C)CC)NC(=O)[C@H](CC(C)C)N(C)C(=O)C[C@@H](C(=O)N2CCOCC2)N(C)C(=O)[C@H](C2CCCC2)N(C)C(=O)C2(CCC2)NC(=O)[C@@H]2CCCN2C(=O)[C@H](CCc2ccc(C(F)(F)F)c(Cl)c2)NC(=O)CN(C)C(=O)[C@@H]1Cc1ccc(C(F)(F)F)cc1 [PP0197] ([NMeL]I[Sar][Sar][NPrPhe(4-CF3)][Sar][hPhe(3-Cl-4-CF3)]P[Ac4c][NMeGly(cPent)][NMeD]-Morpholide; lactam N-11) | B (a compound having 3 or more and less than 10 is denoted as B) | 0.13 | C (A compound having a KD ratio of 0.1 or more and less than 3 is denoted as C)
CCCN1C(=O)[C@@H]2CCN2C(=O)[C@H](C)N(C)C(=O)[C@H]([C@@H](C)CC)NC(=O)[C@H](CC(C)C)N(C)C(=O)C[C@@H](C(=O)N2CCOCC2)N(C)C(=O)[C@H](C2CCCC2)N(C)C(=O)C2(CCC2)NC(=O)[C@@H]2CCCN2C(=O)[C@H](CCc2ccc(C(F)(F)F)c(Cl)c2)NC(=O)CN(C)C(=O)[C@@H]1Cc1ccc(C(F)(F)F)cc1 [PP0198] ([NMeL]I[NMeA][Aze][NPrPhe(4-CF3)][Sar][hPhe(3-Cl-4-CF3)]P[Ac4c][NMeGly(cPent)][NMeD]-Morpholide; lactam N-11) | C (A compound having a KD ratio of 0.1 or more and less than 3 is denoted as C) | 0.19 | B (a compound having 3 or more and less than 10 is denoted as B)
CCCN1C(=O)CN(C)C(=O)CN(C)C(=O)[C@H]([C@@H](C)CC)NC(=O)[C@H](CC(F)(F)F)N(C)C(=O)C[C@@H](C(=O)N2CCOCC2)N(C)C(=O)[C@H](C2CCCC2)N(C)C(=O)C2(CCCC2)NC(=O)[C@@H]2CC(F)(F)CN2C(=O)[C@H](CCc2ccc(C(F)(F)F)c(Cl)c2)NC(=O)CN(C)C(=O)[C@@H]1Cc1ccc(C(F)(F)F)cc1 [PP0199] ([NMeAbu(4,4,4-F3)]I[Sar][Sar][NPrPhe(4-CF3)][Sar][hPhe(3-Cl-4-CF3)][Pro(4,4-F2)][Ac5c][NMeGly(cPent)][NMeD]-Morpholide; lactam N-11) | B (a compound having 3 or more and less than 10 is denoted as B) | 0.13 | C (A compound having a KD ratio of 0.1 or more and less than 3 is denoted as C)
CCCN1C(=O)CN(C)C(=O)CN(C)C(=O)[C@H]([C@@H](C)CC)NC(=O)[C@H](C2CCC2)N(C)C(=O)C[C@@H](C(=O)N2CCOCC2)N(C)C(=O)[C@H](C2CCCC2)N(C)C(=O)C2(CCCC2)NC(=O)[C@@H]2CC(F)(F)CN2C(=O)[C@H](CCc2ccc(C(F)(F)F)c(Cl)c2)NC(=O)CN(C)C(=O)[C@@H]1Cc1ccc(C(F)(F)F)cc1 [PP0200] ([NMeGly(cBu)]I[Sar][Sar][NPrPhe(4-CF3)][Sar][hPhe(3-Cl-4-CF3)][Pro(4,4-F2)][Ac5c][NMeGly(cPent)][NMeD]-Morpholide; lactam N-11) | C (A compound having a KD ratio of 0.1 or more and less than 3 is denoted as C) | 0.22 | C (A compound having a KD ratio of 0.1 or more and less than 3 is denoted as C)
CCC[C@H]1C(=O)N[C@@H]([C@@H](C)CC)C(=O)N(C)CC(=O)N(C)CC(=O)N(CCC)[C@@H](Cc2ccc(C(F)(F)F)cc2)C(=O)N(C)CC(=O)N[C@@H](CCc2ccc(C(F)(F)F)c(Cl)c2)C(=O)N2CC(F)(F)C[C@H]2C(=O)NC2(CCCC2)C(=O)N(C)[C@@H](C2CCCC2)C(=O)N(C)[C@H](C(=O)N2CCOCC2)CC(=O)N1C [PP0201] ([NMeNva]I[Sar][Sar][NPrPhe(4-CF3)][Sar][hPhe(3-Cl-4-CF3)][Pro(4,4-F2)][Ac5c][NMeGly(cPent)][NMeD]-Morpholide; lactam N-11) | B (a compound having 3 or more and less than 10 is denoted as B) | 0.06 | C (A compound having a KD ratio of 0.1 or more and less than 3 is denoted as C)
CCCN1C(=O)CN(C)C(=O)CN(C)C(=O)[C@H]([C@@H](C)CC)NC(=O)[C@H](CC)N(C)C(=O)C[C@@H](C(=O)N2CCOCC2)N(C)C(=O)[C@H](C2CCCC2)N(C)C(=O)C2(CCCC2)NC(=O)[C@@H]2CC(F)(F)CN2C(=O)[C@H](CCc2ccc(C(F)(F)F)c(Cl)c2)NC(=O)CN(C)C(=O)[C@@H]1Cc1ccc(C(F)(F)F)cc1 [PP0202] ([NMeAbu]I[Sar][Sar][NPrPhe(4-CF3)][Sar][hPhe(3-Cl-4-CF3)][Pro(4,4-F2)][Ac5c][NMeGly(cPent)][NMeD]-Morpholide; lactam N-11) | B (a compound having 3 or more and less than 10 is denoted as B) | 0.076 | C (A compound having a KD ratio of 0.1 or more and less than 3 is denoted as C)
CCCN1C(=O)[C@@H]2CCN2C(=O)[C@H](C)N(C)C(=O)[C@H]([C@@H](C)CC)NC(=O)[C@H](CC(F)(F)F)N(C)C(=O)C[C@@H](C(=O)N2CCOCC2)N(C)C(=O)[C@H](C2CCCC2)N(C)C(=O)C2(CCCC2)NC(=O)[C@@H]2CC(F)(F)CN2C(=O)[C@H](CCc2ccc(C(F)(F)F)c(Cl)c2)NC(=O)CN(C)C(=O)[C@@H]1Cc1ccc(C(F)(F)F)cc1 [PP0203] ([NMeAbu(4,4,4-F3)]I[NMeA][Aze][NPrPhe(4-CF3)][Sar][hPhe(3-Cl-4-CF3)][Pro(4,4-F2)][Ac5c][NMeGly(cPent)][NMeD]-Morpholide; lactam N-11) | C (A compound having a KD ratio of 0.1 or more and less than 3 is denoted as C) | 0.094 | C (A compound having a KD ratio of 0.1 or more and less than 3 is denoted as C)
CCCN1C(=O)[C@@H]2CCN2C(=O)[C@H](C)N(C)C(=O)[C@H]([C@@H](C)CC)NC(=O)[C@H](C2CCC2)N(C)C(=O)C[C@@H](C(=O)N2CCOCC2)N(C)C(=O)[C@H](C2CCCC2)N(C)C(=O)C2(CCCC2)NC(=O)[C@@H]2CC(F)(F)CN2C(=O)[C@H](CCc2ccc(C(F)(F)F)c(Cl)c2)NC(=O)CN(C)C(=O)[C@@H]1Cc1ccc(C(F)(F)F)cc1 [PP0204] ([NMeGly(cBu)]I[NMeA][Aze][NPrPhe(4-CF3)][Sar][hPhe(3-Cl-4-CF3)][Pro(4,4-F2)][Ac5c][NMeGly(cPent)][NMeD]-Morpholide; lactam N-11) | C (A compound having a KD ratio of 0.1 or more and less than 3 is denoted as C) | 0.21 | C (A compound having a KD ratio of 0.1 or more and less than 3 is denoted as C)
CCC[C@H]1C(=O)N[C@@H]([C@@H](C)CC)C(=O)N(C)[C@@H](C)C(=O)N2CC[C@H]2C(=O)N(CCC)[C@@H](Cc2ccc(C(F)(F)F)cc2)C(=O)N(C)CC(=O)N[C@@H](CCc2ccc(C(F)(F)F)c(Cl)c2)C(=O)N2CC(F)(F)C[C@H]2C(=O)NC2(CCCC2)C(=O)N(C)[C@@H](C2CCCC2)C(=O)N(C)[C@H](C(=O)N2CCOCC2)CC(=O)N1C [PP0205] ([NMeNva]I[NMeA][Aze][NPrPhe(4-CF3)][Sar][hPhe(3-Cl-4-CF3)][Pro(4,4-F2)][Ac5c][NMeGly(cPent)][NMeD]-Morpholide; lactam N-11) | C (A compound having a KD ratio of 0.1 or more and less than 3 is denoted as C) | 0.11 | C (A compound having a KD ratio of 0.1 or more and less than 3 is denoted as C)
CCCN1C(=O)[C@@H]2CCN2C(=O)[C@H](C)N(C)C(=O)[C@H]([C@@H](C)CC)NC(=O)[C@H](CC)N(C)C(=O)C[C@@H](C(=O)N2CCOCC2)N(C)C(=O)[C@H](C2CCCC2)N(C)C(=O)C2(CCCC2)NC(=O)[C@@H]2CC(F)(F)CN2C(=O)[C@H](CCc2ccc(C(F)(F)F)c(Cl)c2)NC(=O)CN(C)C(=O)[C@@H]1Cc1ccc(C(F)(F)F)cc1 [PP0206] ([NMeAbu]I[NMeA][Aze][NPrPhe(4-CF3)][Sar][hPhe(3-Cl-4-CF3)][Pro(4,4-F2)][Ac5c][NMeGly(cPent)][NMeD]-Morpholide; lactam N-11) | C (A compound having a KD ratio of 0.1 or more and less than 3 is denoted as C) | 0.071 | B (a compound having 3 or more and less than 10 is denoted as B)
CCCN1C(=O)CN(C)C(=O)CN(C)C(=O)[C@H]([C@@H](C)CC)NC(=O)[C@H](CC(C)C)N(C)C(=O)C[C@@H](C(=O)N2CCOCC2)N(C)C(=O)[C@H](C2CCCC2)N(C)C(=O)C2(CCC2)NC(=O)[C@@H]2CC(F)(F)CN2C(=O)[C@H](CCc2ccc(C(F)(F)F)c(Cl)c2)NC(=O)CN(C)C(=O)[C@@H]1Cc1ccc(C(F)(F)F)cc1 [PP0207] ([NMeL]I[Sar][Sar][NPrPhe(4-CF3)][Sar][hPhe(3-Cl-4-CF3)][Pro(4,4-F2)][Ac4c][NMeGly(cPent)][NMeD]-Morpholide; lactam N-11) | B (a compound having 3 or more and less than 10 is denoted as B) | 0.066 | C (A compound having a KD ratio of 0.1 or more and less than 3 is denoted as C)
